Measurements reported in patent publication US9694072B2, “Methods for diagnosing and treating neuroendocrine cancer” (Trustees of Dartmouth College, priority 2005, dated 2017).
Where a name gives a salt, the structure may show the parent alone. Read-outs that look alike come from different tables or passages of the source.

What was measured:
NCI-H146 cells = experiment: Cell growth/viability assay (Alamar Blue); format: cell-based, human; details: Homo sapiens, NCI-H146, 48 h, read-out: IC50, cell viability
Experimental: (§1) Cultures of NCI-H345, NCI-H146, DMS-53 cells (classical cell lines), and NCI-H82 cells (variant cell line) were treated with 0.05% trypsin, washed in phosphate buffered saline (PBS)/glycine and plated onto 96-well plates at 10^4 cells/well in medium for 24 hours to provide time for rectifying possible damage to membrane proteins from the trypsinization. […] Fluorescent readings were taken at periods representing 24, 48, and 72 hours of incubation with antagonist using a Synergy HT Multi-Detection Microplate Reader and excitation/emission wavelengths of 530 nm and 590 nm. Cell viability was evaluated as % vehicle control at the corresponding incubation time.

[1] = system: Human tumor xenografts of breast cancer cells; experiment: Breast cancer xenografts treated with anti-NMDAR1 antibodies; design: species or system nu/nu mice; details: mouse
Experimental: Human tumor xenografts of breast cancer cells were raised in nu/nu mice, and the influence of anti-NMDAR1 polyclonal antibodies then examined on tumor growth. For antibody studies, growth in a control group (n=4) was compared to tumor growth in animals (n=4) receiving 50 ng of Protein A-isolated, antibody-containing, IgG once each day for 15 days. Tumor was then measured for an […]. While control tumors grew to >20 times their original size, tumors treated with anti-NMDAR1 antibodies shrank to <50% original size and remained at this shrunken size for the duration of treatment (p<<0.0001)(FIG. 7). Tumor size then began very slowly to rise but even 20 days later they were only back to original size (100%). Values are expressed as a percentage of tumor size at day 0 (+/−SEM).

[2] = system: NCI-H82 variant SCLC cells; experiment: Cell growth/viability assay (Alamar Blue); format: cell-based, human; details: for IC50: Homo sapiens
Experimental: as §1

[3] = system: LNCAP prostate cancer cells; experiment: Prostate cancer cell viability (Alamar Blue); format: cell-based, human
Experimental: To determine the effects of NMDAR1 antibodies on prostate cell viability, LNCAP prostate cancer cells were plated in 96 well plates at 1-2×10^4 cells/well. […] Alamar Blue was later added to each well following an incubation period, and fluorescent readings taken at excitation 530-560 nm and emission 590 nm and above on a SYNERGY HT Multi Detection Reader.

DMS-53 cells = experiment: Cell growth/viability assay (Alamar Blue); format: cell-based, human; details: Homo sapiens, DMS-53, 48 h, read-out: IC50, cell viability
Experimental: as §1

[4] = system: SKBr3 breast cancer cells; experiment: Alamar Blue growth/proliferation study; format: cell-based, human
[5] = system: NCI-H345 classical SCLC cells; experiment: Cell growth/viability assay (Alamar Blue); details: for IC50: Homo sapiens
Experimental: Cultures of NCI-H345, NCI-H146, DMS-53 cells (classical cell lines), and NCI-H82 cells (variant cell line) were treated with 0.05% trypsin, washed in phosphate buffered saline (PBS)/glycine and plated onto 96-well plates at 10^4 cells/well in medium for 24 hours to provide time for rectifying possible damage to membrane proteins from the trypsinization. The wells were washed and incubated with PBS/glycine containing albumin (1.25 mg/mL) in the presence or absence of different concentrations (25 μM-800 μM) of either the NMDAR 1 antagonists, Memantine or MK-801; or the NMDAR2B antagonists Ifenprodil and Ro 25-6981 (binders to the polyamine site), or the NMDAR2B antagonists L-701,252 and L-701,324 (binders to the glycine site), or vehicle; and Alamar Blue (1:10 dilution following manufacturer's recommendation). Fluorescent readings were taken at periods representing 24, 48, and 72 hours of incubation with antagonist using a Synergy HT Multi-Detection Microplate Reader and excitation/emission wavelengths of 530 nm and 590 nm. Cell viability was evaluated as % vehicle control at the corresponding incubation time.
This peptide domain is represented in that portion of the mRNA message sequenced by RT-PCR. For studies on cell proliferation, the IgGs of this antiserum were first isolated by precipitation with 50% saturated ammonium sulfate, and antibodies purified from these immunoglobulins by affinity chromatography using a column containing the peptide component of the above antigen coupled to SEPHAROSE (Friedmann, et al. (1994) supra; Keegan, et al. (2002) supra).

[6] = system: SCLC NCI-H345 tumor xenografts; experiment: Treatment of SCLC tumor xenografts in mice; format: in vivo, nu/nu mice
Text: Human tumor xenografts of small cell lung cancer (SCLC) cell line NCI-H345 were raised in nu/nu mice, and the influence of the NMDAR1 receptor antagonist dizocilpine maleate (MK-801) then examined on established tumor growth measured by multiplying depth, width, and length determined using a micrometer. Tumor growth in a control group of animals receiving i.p. PBS vehicle (n=4) was compared to tumor growth in animals (n=4) receiving dizocilpine maleate (MK-801) over 10 days. Animals received an escalating single dose of this NMDAR1 antagonist from 0.1 mg/Kg body weight each day for days 0-2, then to a single dose of 0.2 mg/Kg body weight each day for days 3-6, then to a single dose of 0.3 mg/Kg body weight each day for days 7-8. Finally two daily doses of 0.3 mg/Kg body weight were given for days 8-10.
Results were analyzed by Analysis of Variance and the Student-Neuman-Kuels test. Longitudinal growth data was evaluated using repeated measures ANOVA. Significant was determined to be present for p<0.05.

[7] = system: Ovarian A2780 and A2008 cancer cells; experiment: Ovarian cancer cell growth (Alamar Blue); format: cell-based, human
Experimental: Ovarian A2780 and A2008 cancer cells were plated in 96 well plates at 1-2×10^4 cells/well. […] Alamar Blue was later added to each well following an incubation period, and fluorescent readings taken at excitation 530-560 nm and emission of 590 nm and above on a SYNERGY HT Multi Detection Reader. […] Significance was p<0.001 for 400 to 900 μM of MK-801. […] These findings indicate both NMDAR antagonists and anti-NMDA receptor monoclonal antibodies would be of use as effective inhibitors of ovarian tumor xenografts in mice.

[8] = system: SKBr3 breast cancer cells; experiment: Alamar Blue growth/proliferation study; format: cell-based, human; details: SKBr3, NMDAR1 antagonist treatment
Experimental: Results represent triplicate studies performed with Alamar Blue on LAN2 neuroblastoma, MCF-7 breast cancer, and SKBr3 breast cancer cells examining the growth influence of 1 mM glutamate in the presence of glycine over 24 hours.
Results represent triplicate studies performed with Alamar Blue on LAN2 neuroblastoma, MCF-7 breast cancer, and SKBr3 breast cancer cells examining the growth influence of 100 mM Mg^++ in the presence of glycine over 24 hours.

[9] = system: MCF-7 breast cancer cells; experiment: Alamar Blue growth/proliferation study; format: cell-based, human; details: MCF-7, NMDAR1 antagonist treatment

Q: With `C[C@]12N[C@H](Cc3ccccc31)c1ccccc12` [MK-801, dizocilpine maleate] as the molecule, how does the IC50 (NCI-H146 cells) read?
A: Its IC50 is 650 µM.

Q: And the “growth of breast cancer tumors in vivo (in words)” value [1]?
A: The value was “completely inhibited growth of these tumors in vivo”.

Q: And the IC50 ([2]; NCI-H82, 48 h, read-out: IC50, cell viability)?
A: The IC50 was 300 µM.

Q: What about the IC50 ([2]; NCI-H82, read-out: IC50, cell viability) of the same molecule?
A: Its IC50 is roughly 200 µM.

Q: What about the “Cell viability reduced to” value ([2]; NCI-H82, 24, 48, and 72 hours incubation) of the same molecule?
A: The value was “about 10 % of control”.

Q: What about the “effect on cell growth/viability (in words)” value [3] of the same molecule?
A: Its value is “significance in reductions was p<0.001 for 400 to 900 μM”.

Q: And the IC50 (DMS-53 cells)?
A: The IC50 was greater than 800 µM.

Q: And the “Proliferation of SKBr3 Cells Percent Fluorescence Compared to Control” value ([4]; 100 μM, 24 Hours)?
A: Its value is 92.29 ± 6.82%.

Q: What about the “Proliferation of SKBr3 Cells Percent Fluorescence Compared to Control” value ([4]; 100 μM, 48 Hours) of the same molecule?
A: The value was 91.74 ± 2.94%.

Q: And the “Proliferation of SKBr3 Cells Percent Fluorescence Compared to Control” value ([4]; 100 μM, 72 Hours)?
A: The value was 95.06 ± 1.22%.

Q: And the “Proliferation of SKBr3 Cells Percent Fluorescence Compared to Control” value ([4]; 200 μM, 24 Hours)?
A: Its value is 89.47 ± 5.77%.

Q: And the “Proliferation of SKBr3 Cells Percent Fluorescence Compared to Control” value ([4]; 200 μM, 48 Hours)?
A: Its value is 89.35 ± 2.83%.

Q: And the “Proliferation of SKBr3 Cells Percent Fluorescence Compared to Control” value ([4]; 200 μM, 72 Hours)?
A: The value was 93.24 ± 1.68%.

Q: What about the “Proliferation of SKBr3 Cells Percent Fluorescence Compared to Control” value ([4]; 300 μM, 24 Hours) of the same molecule?
A: Its value is 84.39 ± 5.01%.

Q: And the “Proliferation of SKBr3 Cells Percent Fluorescence Compared to Control” value ([4]; 300 μM, 48 Hours)?
A: Its value is 83.79 ± 2.71%.

Q: And the “Proliferation of SKBr3 Cells Percent Fluorescence Compared to Control” value ([4]; 300 μM, 72 Hours)?
A: The value was 88.97 ± 2.04%.

Q: And the “Proliferation of SKBr3 Cells Percent Fluorescence Compared to Control” value ([4]; 400 μM, 24 Hours)?
A: The value was 75.17 ± 4.67%.

Q: And the “Proliferation of SKBr3 Cells Percent Fluorescence Compared to Control” value ([4]; 400 μM, 48 Hours)?
A: The value was 70.62 ± 2.34%.

Q: What about the “Proliferation of SKBr3 Cells Percent Fluorescence Compared to Control” value ([4]; 400 μM, 72 Hours) of the same molecule?
A: Its value is 77.08 ± 2.78%.

Q: What about the “Proliferation of SKBr3 Cells Percent Fluorescence Compared to Control” value ([4]; 500 μM, 24 Hours) of the same molecule?
A: The value was 65.50 ± 3.74%.

Q: And the “Proliferation of SKBr3 Cells Percent Fluorescence Compared to Control” value ([4]; 500 μM, 48 Hours)?
A: Its value is 59.07 ± 2.49%.

Q: What about the “Proliferation of SKBr3 Cells Percent Fluorescence Compared to Control” value ([4]; 500 μM, 72 Hours) of the same molecule?
A: Its value is 67.02 ± 5.13%.

Q: And the “Proliferation of SKBr3 Cells Percent Fluorescence Compared to Control” value ([4]; 600 μM, 24 Hours)?
A: The value was 58.06 ± 3.00%.

Q: What about the “Proliferation of SKBr3 Cells Percent Fluorescence Compared to Control” value ([4]; 600 μM, 48 Hours) of the same molecule?
A: Its value is 50.59 ± 2.34%.

Q: And the “Proliferation of SKBr3 Cells Percent Fluorescence Compared to Control” value ([4]; 600 μM, 72 Hours)?
A: The value was 52.57 ± 2.28%.

Q: And the “Proliferation of SKBr3 Cells Percent Fluorescence Compared to Control” value ([4]; 700 μM, 24 Hours)?
A: The value was 51.97 ± 2.77%.

Q: And the “Proliferation of SKBr3 Cells Percent Fluorescence Compared to Control” value ([4]; 700 μM, 48 Hours)?
A: Its value is 43.84 ± 3.41%.

Q: What about the “Proliferation of SKBr3 Cells Percent Fluorescence Compared to Control” value ([4]; 700 μM, 72 Hours) of the same molecule?
A: Its value is 44.88 ± 3.40%.

Q: What about the “Proliferation of SKBr3 Cells Percent Fluorescence Compared to Control” value ([4]; 800 μM, 24 Hours) of the same molecule?
A: Its value is 43.27 ± 2.50%.

Q: What about the “Proliferation of SKBr3 Cells Percent Fluorescence Compared to Control” value ([4]; 800 μM, 48 Hours) of the same molecule?
A: The value was 33.77 ± 4.19%.

Q: What about the “Proliferation of SKBr3 Cells Percent Fluorescence Compared to Control” value ([4]; 800 μM, 72 Hours) of the same molecule?
A: The value was 33.91 ± 4.35%.

Q: And the “Proliferation of SKBr3 Cells Percent Fluorescence Compared to Control” value ([4]; 900 μM, 24 Hours)?
A: The value was 35.73 ± 2.66%.

Q: What about the “Proliferation of SKBr3 Cells Percent Fluorescence Compared to Control” value ([4]; 900 μM, 48 Hours) of the same molecule?
A: Its value is 25.48 ± 5.92%.

Q: What about the “Proliferation of SKBr3 Cells Percent Fluorescence Compared to Control” value ([4]; 900 μM, 72 Hours) of the same molecule?
A: Its value is 25.21 ± 5.96%.

Q: And the “reduced proliferation by” value ([4]; SKBr3, 0.9 mM, 72 hours)?
A: The value was “about 80%”.

Q: And the IC50 ([5]; NCI-H345, 48 h, read-out: IC50, cell viability)?
A: Its IC50 is 300 µM.

Q: And the IC50 ([5]; NCI-H345, read-out: IC50, cell viability)?
A: Its IC50 is roughly 200 µM.

Q: What about the “Cell viability reduced to” value ([5]; NCI-H345, 24, 48, and 72 hours incubation) of the same molecule?
A: The value was “about 10 % of control”.

Q: And the “behavioral effects in the animals” value ([6]; MK-801 at the dose indicated)?
A: The value was “no noticeable behavioral effects”.

Q: And the “well-being as exemplified by body weight” value ([6]; MK-801 at the dose indicated)?
A: Its value is “no apparent effect on their well-being”.

Q: What about the “Growth of small-cell tumors (in words)” value ([6]; escalating doses from 0.1 mg/kg once daily to 0.3 mg/kg twice daily) of the same molecule?
A: The value was “significantly (p<0.0001) reduced”.

Q: What about the “rate of tumor growth reduced to” value ([6]; i.p., escalating 0.1 to 0.3 mg/Kg over 10 days) of the same molecule?
A: The value was ~60 % that of controls.

Q: And the “reduction in fluorescent units” value ([7]; at 500, 600, 700, 800, and 900 μM compared to 100, 200 and 400 μM)?
A: The value was “more than 50%”.

Q: What about the “effect on cell growth (in words)” value ([7]; ovarian cancer cells, Alamar Blue) of the same molecule?
A: The value was “dramatic reductions in cell growth”.

Q: What about the “effect on proliferation (in words)” value [8] of the same molecule?
A: The value was “decrease proliferation”.

Q: What about the “effect on proliferation (in words)” value [9] of the same molecule?
A: Its value is “decrease proliferation”.
